We go through 19 molecules from patent US20240307819A1, “ELECTROCHEMICAL TARGET SPECIES CAPTURE WITH A REDOX-ACTIVE AMINE” (Massachusetts Institute of Technology, priority 2021, published 2024).

A short description of series [1]: Cyclic voltammetry of the redox-active amines. To be noted: for Potential gap / Ep^oxi vs Ag/AgCl / Ep^red vs Ag/AgCl: Table 1; for Potential gap: gap between Ep^oxi and Ep^red; for Ep^oxi vs Ag/AgCl / Ep^red vs Ag/AgCl: techniques of Example 1.
Experimental: Potentials were recorded versus Ag/AgCl as a reference electrode.
Cyclic voltammetry (CV) was conducted to probe the mechanism of this process as depicted in FIG. 4E.
Each of structures 1-20 were assessed for electrochemical capture and release of carbon dioxide in accordance with the techniques described above in Example 1. Absorption capacities for carbon dioxide are reported in units of moles of CO2 per mole of amine. […] For the release experiments, 3.5 mL solutions of amine and captured carbon dioxide at concentrations ranging from 0.1-0.2 M of amine were electrochemically oxidized at a constant current of 50 mA while released CO2 was measured as a function of charge passed.
The nature of series [2]: Electrochemical release of CO2 by constant-current oxidation in an H-cell (electron utilization). The following applies: for εCO2 (electron utilization during CO2 release): moles of CO2 released per moles of electrons, 0.1-0.2 M amine, constant current 50 mA. Further details: key to stable electron utilization: moles CO2 released per mole of electrons transferred. Here is the method: FIGS. 5A-5F are related to electrochemical release of CO2. FIG. 5A is a schematic of the experimental setup for CO2 release. […] The amount of released CO2 (curve A) and electron utilization (curve B) are shown versus electric charge.
A bench-scale setup using an electrochemical H-cell was constructed and tested for the capture and release of CO2 (FIG. 5A). The system was equipped with an anion exchange membrane separating two 5 mL reaction chambers, carbon felt as a working electrode, and a stainless steel wire electrode for an arbitrary reaction in the counter chamber. […] Then, pure CO2 was bubbled into the solution for 10 min to complete the saturation of the electrochemically generated 1-Apyl radical dimer 3 solution. […] The electron utilization (εCO2) during CO2 release on oxidation represents the ratio between the moles of CO2 released and the moles of electrons transferred (equation 1): […]

Series [3] in a line: CO2 absorption by electrochemically reduced amine solutions. The following applies: for CO2 capacity (absorption capacity): 1 mL aqueous 0.1-0.2 M amine, reduced, 15% CO2 inlet gas. On the procedure: FIGS. 6A-6D are related to CO2 absorption dynamics in 1-APyl radical 2 solutions. […] 0.2 M 1-APyl radical 2 solution in 1 mL of water was contacted with the gas at a flow rate of 3.3 mL/min at room temperature. […] 1 mL of 0.04 M 1-APyl radical 2 solution was contacted with the gas at a flow rate of 3.3 mL/min at room temperature. […] A flow of 15% CO2 concentration balanced by nitrogen was used.
The changes in flow rate and concentration of CO2 were monitored by a CO2 flow meter and an FT-IR CO2 sensor, respectively.

A short description of series [4]: Aqueous solubility. It is filed as physicochemical. To be noted: Table 1, aqueous solution.
Series [5] is described as follows: Cyclic stability of electrochemical CO2 capture and release over 5 cycles. Here is the method:
FIGS. 7A-7D are related to cyclic stability of the electrochemical CO2 capture and release by 1-AP nitrate (1) redox system for 5 cycles.
The reversible capture and release of CO2 was tested over five cycles to evaluate the robustness of the 1-AP nitrate redox cycle (FIG. 7A-7D). The cyclic stability was evaluated with a 0.8 mmol amine solution and restricted to operate at 80% of the full capacity of the cell in order to minimize undesired side reactions. The gas output and CO2 fraction were monitored to show reproducible and stable capture and release of CO2 during five cycles under the applied current conditions. The gas release rate was steady at 0.75 mL/min, consistent with the release of one mole of CO2 per mole electrons transferred under steady current flow in each cycle.

The nature of series [6]: Direct capture of CO2 from ambient air, then electrochemical oxidation. The following applies: 0.2 M, 3.5 mL, bubbled with air 18 h at ca. 100 mL/min. Here is the method: (§1) FIGS. 8A-8C are related to direct air capture and stability test of 1-APyl radical 2 solution. […] 0.1, 0.2, and 0.4 M 1-APyl radical 2 aqueous solutions (1 mL) were bubbled with air at a flow rate of 3.3 mL/min at room temperature. […] The 1-APyl radical 2 solutions (0.2 M, 5 mL) were bubbled with dioxygen for 1 and 30 days (curve shading matching the shading of the labels in the figure) at a flow rate of 10 mL/min followed by contact with pure CO2 for an additional 12 min. The 1-APyl radical 2 solutions were sealed under nitrogen for 1 and 30 days followed by contact with pure CO2 for 12 min for the control experiments.
We next sought to expand the use of the 1-AP nitrate redox cycle to the direct capture of CO2 from ambient air (FIGS. 8A-8C). The 1-APyl radical dimer 3 solution (3.5 mL) was prepared by first reducing a 0.2 M 1-AP nitrate (1) solution, and then bubbling the solution with non-pretreated air for 18 h at a flow rate of ca. 100 mL/min (FIG. 8A). Electrochemical oxidation of the air-bubbled solution was carried out to evaluate the direct air capture efficiency. The system presented electron utilization during CO2 release of up to 0.78 with 36% cell capacity usage with the 0.2 M solution. […] Initial CO2 absorption rates from the ambient air were measured in 0.1, 0.2, and 0.4 M solutions of 1-APyl radical 2 (FIG. 8B). […]

Series [7] in a line: Stability test of 1-APyl radical solution (oxygen sensitivity and nitrogen controls). The series is classed as physicochemical. The following applies: 0.2 M, 5 mL. On the procedure: as §1
To test the stability of the 1-APyl radical in air, a set of experiments was carried out (FIG. 8C). Exposure to pure dioxygen (10 mL/min) of the 1-APyl radical 2 solution (0.2 M, 5 mL) for 1 and 30 days (see corresponding curve in FIG. 8C) followed by saturation with pure CO2 provided 6.6% and 46% decrease, respectively, of the capacity of the system compared to the output for the freshly CO2-saturated solution (see corresponding curve in FIG. 8C). […] Although further studies for the stability under the various conditions are warranted, operation in the presence of oxygen remains feasible.

The conditions of series [8]: in water; cited from earlier work.
[9] abbreviates: 20 mM in water, 0.1 M potassium nitrate, nitrogen, platinum working electrode, 20 mV/s, room temperature.

Where only a bound is given, the exact number is not on record here.

With `Nc1ccc[n+](N)c1` [Entry 15], in series [1], the Potential gap is 1.73 V, the “Ep^oxi vs Ag/AgCl” value is recorded as 1.03 V and the “Ep^red vs Ag/AgCl” value is on record as −0.70 V. In series [2] (3.5 mL), the “εCO2 (electron utilization during CO2 release)” value (from here on “εCO2”) is recorded as 0.72. Further, in series [3] (3.3 mL/min), the “CO2 capacity (absorption capacity)” value is reported as 1.1 moles of CO2 per mole of amine.
For the molecule `N[n+]1ccc(O)cc1` [Entry 9], in series [1], the Potential gap worked out at 1.41 V, the “Ep^oxi vs Ag/AgCl” value is given as 0.85 V and the “Ep^red vs Ag/AgCl” value is recorded as −0.56 V. Moreover, the “εCO2” value in series [2] (3.5 mL) worked out at 0.32. For the same molecule, in series [3] (3.3 mL/min), the “CO2 capacity (absorption capacity)” value was 0.95 moles of CO2 per mole of amine.
Take `Cc1cccc(C)[n+]1N.[O-][Cl+3]([O-])([O-])[O-]` [Entry 17]: in series [1], the Potential gap turned out to be 1.47 V, the “Ep^oxi vs Ag/AgCl” value stood at 1.04 V and the “Ep^red vs Ag/AgCl” value is on record as −0.43 V.
Consider `COc1ccc[n+](N)c1.[O-][Cl+3]([O-])([O-])[O-]` [Entry 14], for which, in series [1], the Potential gap is 1.30 V, the “Ep^oxi vs Ag/AgCl” value was 0.84 V and the “Ep^red vs Ag/AgCl” value is −0.44 V. The “εCO2” value in series [2] (3.5 mL) turned out to be 0.41.
Broadly, the solubility is how much of the substance goes into solution per volume. As for `N[n+]1c2ccccc2nc2ccccc21` [Entry 20, amino-phenazinium], the solubility in series [4] (read-out: Low solubility (Observations)) was < 10 mM.
With `COc1cc[n+](N)cc1.[O-][Cl+3]([O-])([O-])[O-]` [Entry 4], in series [1], the Potential gap turned out to be 1.75 V, the “Ep^oxi vs Ag/AgCl” value was determined as 1.05 V and the “Ep^red vs Ag/AgCl” value is −0.70 V. For the same molecule, the “Low solubility (Observations)” value in series [4] was “(<0.2M)”. For the same molecule, the “εCO2” value in series [2] (3.5 mL) was 0.70.
As for `COc1cccc[n+]1N.O=[N+]([O-])[O-]` [Entry 16], in series [1], the Potential gap was found to be 2.46 V, the “Ep^oxi vs Ag/AgCl” value was 1.73 V and the “Ep^red vs Ag/AgCl” value was −0.73 V. Besides, in series [2] (3.5 mL), the “εCO2” value was 0.76. For the same molecule, the “CO2 capacity (absorption capacity)” value in series [3] (3.3 mL/min) is 1.05 moles of CO2 per mole of amine.
Turning to `CNc1cc[n+](N)cc1.O=[N+]([O-])[O-]` [Entry 12], in series [1], the Potential gap is on record as 1.34 V, the “Ep^oxi vs Ag/AgCl” value was 0.87 V and the “Ep^red vs Ag/AgCl” value is on record as −0.47 V. For the same molecule, the “εCO2” value in series [2] (3.5 mL) is 0.91. Further, in series [3] (3.3 mL/min), the “CO2 capacity (absorption capacity)” value was 1.6 moles of CO2 per mole of amine.
`CC(C)(C)c1cc[n+](N)cc1.[O-][Cl+3]([O-])([O-])[O-]` [Entry 3]: in series [1], the Potential gap stood at 1.31 V, the “Ep^oxi vs Ag/AgCl” value is reported as 0.83 V and the “Ep^red vs Ag/AgCl” value is −0.48 V. Further, in series [4], the “Low solubility (Observations)” value is reported as “(<0.2M)”. In addition, the “εCO2” value in series [2] (3.5 mL) came to 0.52.
As for `CN(C)c1cc[n+](N)cc1` [Entry 6], in series [1], the Potential gap came to 1.28 V, the “Ep^oxi vs Ag/AgCl” value was determined as 0.85 V and the “Ep^red vs Ag/AgCl” value is listed as −0.43 V. Further, the “εCO2” value in series [2] (3.5 mL) was 0.99. Also, the “CO2 capacity (absorption capacity)” value in series [3] (3.3 mL/min) was 2.0 moles of CO2 per mole of amine.
The like results for `NC(=O)c1cc[n+](N)cc1.O=[N+]([O-])[O-]` [Entry 7] were, in that order, 1.37 V, 0.88 V, −0.49 V, 0.69 and 1.1 moles of CO2 per mole of amine.
As for `N#Cc1cc[n+](N)cc1.O=[N+]([O-])[O-]` [Entry 8], in series [1], the Potential gap is on record as 1.43 V, the “Ep^oxi vs Ag/AgCl” value is 0.88 V and the “Ep^red vs Ag/AgCl” value is given as −0.55 V. Moreover, the “εCO2” value in series [2] (3.5 mL) worked out at 0.70. Besides, in series [3] (3.3 mL/min), the “CO2 capacity (absorption capacity)” value is given as 1.65 moles of CO2 per mole of amine.
Take `N[n+]1ccccc1` [1-AP nitrate, 1-aminopyridinium]: the gas release rate in series [5] (0.2 M, 0.8 mmol in 4 mL water, 50 mA, 80% of full capacity, each of 5 cycles) came to 0.75 mL/min. Besides, the robustness over cycles entry in series [5] (5 cycles) is listed as “no significant loss in performance”. Moreover, in series [1] (setting [9]), the oxidative peak potential is listed as −0.32 V vs. Ag/AgCl and the reductive peak potential is given as −0.45 V vs. Ag/AgCl. Besides, the stable electron utilization in series [2] (1 M 1-AP nitrate solution, 3.5 mL, 100 mA) is 1.25. The “capacity of the electrochemical CO2 release process” value in series [2] (per g of 1-AP nitrate) was determined as 12.4 mmol/g. For the same molecule, in series [2] (solution prepared from 0.2 M 1-AP nitrate, 3.5 mL, 50 mA), the electron utilization result is recorded as “up to 1.08”. Moreover, the “cell capacity usage, direct air capture” value in series [6] is 36%. Also, the “electron utilization during CO2 release, direct air capture” value in series [6] (50 mA) is on record as “up to 0.78”.
Turning to “1-aminopyridinyl (1-APyl) radical [1-APyl radical 2]”, the “decrease of the capacity of the system” value worked out at 54% in series [7] (bubbled with nitrogen 10 mL/min, 30 days); 6.6% in series [7] (pure dioxygen 10 mL/min, 1 day, vs freshly CO2-saturated solution); 46% in series [7] (pure dioxygen 10 mL/min, 30 days); 7.2% in series [7] (sealed under nitrogen, 1 day); 22% in series [7] (sealed under nitrogen, 30 days). The “stability in water (from quasi-reversible CV wave)” value in series [1] (water, room temperature) is “stable in water at room temperature”. For the same molecule, the “CO2 absorption rate compared with EDA and MEA” value in series [3] (0.2 M in 1 mL water, 15% CO2 balanced by nitrogen) is given as “comparable”. Moreover, the “constant CO2 capacity” value in series [3] (1, 4, 15 and 100% CO2 inlet gas streams, 3.3 mL/min, room temperature) is 1.94 mole of CO2 per mole of amine.
Turning to `Cc1cc(C)c[n+](N)c1.[O-][Cl+3]([O-])([O-])[O-]` [Entry 18], in series [1], the Potential gap is reported as 1.96 V, the “Ep^oxi vs Ag/AgCl” value was 1.52 V and the “Ep^red vs Ag/AgCl” value is listed as −0.44 V.
Regarding `Nc1cc[n+](N)cc1` [Entry 5], in series [1], the Potential gap amounted to 1.44 V, the “Ep^oxi vs Ag/AgCl” value is reported as 1.02 V and the “Ep^red vs Ag/AgCl” value was −0.48 V. Moreover, the “εCO2” value in series [2] (3.5 mL) was determined as 0.99. Moreover, the “CO2 capacity (absorption capacity)” value in series [3] (3.3 mL/min) was 2.3 moles of CO2 per mole of amine.
In the case of `Cc1ccc[n+](N)c1.[O-][Cl+3]([O-])([O-])[O-]` [Entry 13], in series [1], the Potential gap is listed as 1.47 V, the “Ep^oxi vs Ag/AgCl” value is reported as 1.00 V and the “Ep^red vs Ag/AgCl” value is reported as −0.47 V. The “εCO2” value in series [2] (3.5 mL) was found to be 0.83.
As to `COC(=O)c1cc[n+](N)cc1.F[B-](F)(F)F` [Entry 1], the “Ep^red vs Ag/AgCl” value in series [1] is −0.34 V.
For `O=C(O)O` [carbonic acid], in series [8], the pKa entry is on record as “approximately 6.8”.
